In assay [1] the test system is Recessive dystrophic epidermolysis bullosa (RDEB) mice. Conditions: four weeks, results published by Nyström et al.; cited from earlier work.
A further assay relates to thrombospondin-1. Briefly: Western blot of whole protein lysates of mouse forepaws: thrombospondin-1. The format is in vivo. The following applies: RDEB mouse forepaw lysates, four weeks treatment, relative to untreated RDEB mice. The text has this:
(§1) FIG. 7 depicts tenascin-C, thrombospondin-1, pSMAD2/3, galectin 3, and β-tubulin Western blots of whole protein lysates of mouse forepaws. Samples were obtained from age-matched wild-type mice, untreated recessive dystrophic epidermolysis bullosa (RDEB) mice, and RDEB mice treated with angiotensin (1-7) for four weeks.
(§2) FIG. 8 is a graph depicting the quantification of Western blot bands immunostained with antibodies directed against tenascin-C, thrombospondin-1, pSMAD2/3, and galectin 3. Samples consisted of whole protein lysates of mouse forepaws obtained from age-matched wild-type mice, untreated recessive dystrophic epidermolysis bullosa (RDEB) mice, and RDEB mice treated with angiotensin (1-7) for four weeks. Samples were normalized against β-tubulin. […] Each bar corresponds to a mean value, and error bars correspond to standard error of the mean (SEM).
(§3) Whole protein lysates from mouse forepaws were analyzed by Western blotting with antibodies directed against tenascin-C, thrombospondin-1, pSMAD2/3, galectin 3, and β-tubulin (FIG. 7). Thrombospondin 1 can activate transforming growth factor beta (TGFβ) signaling, which is associated with fibrosis. TGFβ signals through an intracellular SMAD pathway, and thus, phosphorylated-SMAD (e.g., pSMAD2/3) correlates with TGFβ-associated fibrosis. […] Western blotting results were quantified by densitometry and normalized against β-tubulin.
(In western blotting, separated proteins are transferred to a membrane and probed.)

Assay [2] deals with α-SMA positive myofibroblasts. Put plainly: α-SMA immunostaining of mouse forepaw cryosections. Conditions: RDEB mice, four weeks treatment, relative to untreated RDEB mice. In kind it is in vivo. An excerpt: (§4) FIG. 5 depicts images of α-SMA (top panel), fibronectin (middle panel), and CD11b (bottom panel) immunostained cryosections of mouse forepaws. The cryosections were obtained from age-matched wild-type mice, untreated recessive dystrophic epidermolysis bullosa (RDEB) mice, and RDEB mice treated with angiotensin (1-7) for four weeks. […] Cells were counterstained with 4′,6-diamidino-2-phenylindole (DAPI).
(§5) Cryosections of mouse forepaws were also immunostained for α-SMA (alpha smooth muscle actin), fibronectin, and CD11b. α-SMA is a myofibroblast cell marker, which correlates with fibrotic disease. Fibronectin correlates with dermal fibrosis. CD11b (integrin αM subunit) is a leukocyte marker, which is expressed by monocytes, granulocytes (e.g., neutrophils), macrophages, and natural killer cells.

Another assay has as its system fibronectin. Put plainly: Fibronectin immunostaining of mouse forepaw cryosections. Conditions: RDEB mice, four weeks treatment, relative to untreated RDEB mice. In kind it is in vivo.
From the text: as §4, §5

Assay [3] concerns CD11b-positive inflammatory leukocytes. Put plainly: CD11b immunostaining of mouse forepaw cryosections, CD11b-positive cells counted with ImageJ. In kind it is in vivo. Conditions: RDEB mice, four weeks treatment.
From the text: as §4
FIG. 6 is a graph depicting the quantification of CD11b-positive cells per mm^2 in images of immunostained cryosections of mouse forepaws. The cryosections were obtained from age-matched wild-type mice, untreated recessive dystrophic epidermolysis bullosa (RDEB) mice, and RDEB mice treated with angiotensin (1-7) for four weeks. CD11b stains neutrophils and macrophages. […] Each bar corresponds to a mean value, and error bars correspond to standard error of the mean (SEM).
Cryosections of mouse forepaws were also immunostained for α-SMA (alpha smooth muscle actin), fibronectin, and CD11b. α-SMA is a myofibroblast cell marker, which correlates with fibrotic disease. Fibronectin correlates with dermal fibrosis. […]
The number of CD11b-positive cells per mm^2 was quantified using ImageJ software. […] Identical thresholds were applied to all images, the images were converted to binary images, and all particles >10 pixles^2 were automatically counted.

Assay [4] has as its system tenascin-C. Put plainly: Tenascin-C immunostaining of mouse forepaw cryosections. The format is in vivo. The following applies: RDEB mice, four weeks treatment, relative to untreated RDEB controls; P<0.001. The text has this: FIG. 3 depicts images of tenascin-C immunostained cryosections of mouse forepaws. The cryosections were obtained from age-matched wild-type mice, untreated recessive dystrophic epidermolysis bullosa (RDEB) mice, and RDEB mice treated with angiotensin (1-7) for four weeks. Each top panel corresponds to cryosections of the walking pads of a mouse, and each bottom panel corresponds to sections of toes. Tenascin-C is present at low abundance in uninjured skin, and it increases in fibrotic skin. […] Tenascin-C staining was observed primarily just below the dermal-epidermal junction in angiotensin (1-7) treated mice, which corresponds to the initial site of injury in RDEB mice. Cells were counterstained with 4′,6-diamidino-2-phenylindole (DAPI), and the scale bar corresponds to 200 μm.
FIG. 4 is a graph depicting the quantification of the fluorescence intensity of cryosection images of mouse forepaws immunostained with an anti-tenascin-C antibody. […]
Immunostaining was performed on cryosections of mouse forepaws of wild-type mice, untreated RDEB mice, and RDEB mice treated with angiotensin (1-7) for four weeks. […] Tenascin-C immunostaining was visualized using fluorescence microscopy (FIG. 3). Immunostaining was quantified with ImageJ software on images obtained with identical microscope settings and exposure time. […]

A further assay concerns galectin 3. Put plainly: Western blot of whole protein lysates of mouse forepaws: galectin 3. The following applies: RDEB mouse forepaw lysates, four weeks treatment, relative to untreated RDEB mice. In kind it is in vivo.
From the text: as §1, §2, §3

Assay [5] relates to Recessive dystrophic epidermolysis bullosa (RDEB) mice. Put plainly: Blistering of forepaws of RDEB mice. The format is in vivo, mouse. The following applies: four weeks treatment, wild type controls lacked blistering.
The subject of a further assay is pSMAD2/3. Put plainly: Western blot of whole protein lysates of mouse forepaws: pSMAD2/3. In kind it is in vivo. Conditions: RDEB mouse forepaw lysates, four weeks treatment, relative to untreated RDEB mice.
From the text: as §1, §2, §3

In assay [6] the test system is Recessive dystrophic epidermolysis bullosa (RDEB) mice. Briefly: Toe length and loss/fusion of digits in RDEB mice treated four weeks. The format is in vivo, mouse. As for the experimental part: FIGS. 1A-1B. Recessive dystrophic epidermolysis bullosa (RDEB) mice were treated with angiotensin (1-7) peptide for four weeks. FIG. 1A consists of images of the right forepaw of a RDEB mouse before and after treatment with angiotensin (1-7). […] FIG. 1B is a graph of the average toe length of RDEB mice treated with angiotensin (1-7) peptide for four weeks (“Tarix”) or a vehicle control (“Vehicle”) as a percentage of average toe length before treatment.
FIG. 2 is a graph of average toe length of recessive dystrophic epidermolysis bullosa (RDEB) mice treated with either angiotensin (1-7) peptide, losartan, or a vehicle control for four weeks as a percentage of average toe length before treatment.
Recessive dystrophic epidermolysis bullosa (RDEB) is caused by a mutation in the gene encoding type VII collagen. RDEB mice display marked fibrosis, which leads to deleterious phenotypes including the fibrosis-driven loss and fusion of digits over time (see, e.g., Nyström, A. et al., EMBO MOLECULAR MEDICINE 7(9):1211-28 (2015)).
RDEB mice were treated with angiotensin (1-7) for four weeks (nine mice) or left untreated (three mice). Three wild type mice served as controls.

Assay [7] has as its system tenascin-C. Put plainly: Western blot of whole protein lysates of mouse forepaws: tenascin-C. In kind it is in vivo. Conditions: RDEB mouse forepaw lysates, four weeks treatment, relative to untreated RDEB mice.
From the text: as §1, §2, §3

Entries after “also recorded” stand apart in the source; their conditions may differ.

For `CCCCc1nc(Cl)c(CO)n1Cc1ccc(-c2ccccc2-c2nn[nH]n2)cc1` [losartan], in [1], the “average toe length as a percentage of average toe length before treatment (losartan)” value is “similar”.

In the case of “Asp^1-Arg^2-Val^3-Tyr^4-Ile^5-His^6-Pro^7 [angiotensin (1-7)]”, the “thrombospondin-1 abundance, Western blot normalized against β-tubulin” value in the assay with thrombospondin-1 was “reduced abundance of the TGFβ activator thrombospondin-1”. Moreover, the “α-SMA positive cells (myofibroblasts) in forepaw” value in [2] is on record as “fewer α-SMA positive cells; also recorded: reduced the number of α-SMA positive myofibroblasts”. For the same compound, the “dermal fibronectin immunostaining in forepaw” value in the assay on fibronectin is listed as “less fibronectin immunostaining; also recorded: reduced”. Moreover, the “CD11b-positive cells in forepaw dermis” value in [3] (relative to untreated RDEB mice) is on record as “fewer CD11b-positive cells; also recorded: reduced; also recorded: reduction in CD11b-positive cell density”. Besides, in assay [3] (versus age-matched wild type mice), the “number of CD11b-positive cells per mm^2 compared with wild type mice” value was “about the same number of CD11b-positive cells per mm^2 as wild type mice”. The “tenascin-C immunostaining (fluorescence intensity) in forepaw dermis” value in the assay on tenascin-C [4] is “significant (P<0.001) reduction in tenascin-C staining; also recorded: significantly lowered the amount of tenascin-C staining; also recorded: significant reduction in tenascin-C immunostaining”. Moreover, the “galectin-3 abundance, Western blot normalized against β-tubulin” value with galectin 3 is “reduced galectin-3”. The blistering of forepaws result in assay [5] is reported as “displayed blistering”. Moreover, the “phosphorylated SMAD2/3 (pSMAD2/3) abundance, Western blot normalized against β-tubulin” value in the assay with pSMAD2/3 is “reduced abundance of phosphorylated SMAD2/3”. Moreover, the “average toe length as a percentage of average toe length before treatment” value in [6] (relative to vehicle-treated RDEB controls (results published by Nyström et al.)) was “significant reduction in the decrease in toe length; also recorded: protected against RDEB-associated decreases in toe length”. Also, the “fibrosis-driven loss and fusion of digits” value in assay [6] (right forepaw, four weeks treatment) is “reduced the expression of this deleterious phenotype; also recorded: protected against RDEB-associated decreases in toe length and fusion of digits”. In the assay with tenascin-C [7], the “tenascin-C abundance, Western blot normalized against β-tubulin” value is “reduced tenascin-C”.

The values above are taken from patent US10960045B2, “Methods and compositions for the treatment of epidermolysis bullosa” (Constant Therapeutics LLC, priority 2015, dated 2021).
